± gives the expanded uncertainty stated by the source.
Assay: molar heat capacity at constant pressure
Conditions: 101.33 kPa, Vacuum adiabatic calorimetry

O=P([O-])([O-])[O-].[Cs+].[Mn+2] [cesium manganese(II) phosphate]
Conditions | molar heat capacity at constant pressure [J/K/mol]
5 K, Crystal 3 | 1.713 ± 0.075
5.85 K, Crystal 3 | 2.328 ± 0.17
6 K, Crystal 3 | 2.918 ± 0.12
6.04 K, Crystal 3 | 3.492 ± 0.17
6.34 K, Crystal 3 | 4.989 ± 0.39
6.38 K, Crystal 3 | 5.654 ± 0.42
6.59 K, Crystal 3 | 21.87 ± 1.1
6.73 K, Crystal 3 | 13.64 ± 1.5
6.86 K, Crystal 3 | 41.07 ± 4.6
6.9 K, Crystal 2 | 4.573 ± 0.18
6.9 K, Crystal 3 | 4.282 ± 0.17
7 K, Crystal 2 | 4.623 ± 0.19
7.01 K, Crystal 2 | 15.8 ± 0.91
7.32 K, Crystal 2 | 9.146 ± 0.42
7.33 K, Crystal 2 | 6.236 ± 0.34
7.8 K, Crystal 2 | 5.986 ± 0.24
8 K, Crystal 2 | 4.972 ± 0.2
8.09 K, Crystal 2 | 5.321 ± 0.25
8.15 K, Crystal 2 | 5.82 ± 0.23
8.3 K, Crystal 2 | 5.488 ± 0.22
8.79 K, Crystal 2 | 5.238 ± 0.22
9 K, Crystal 2 | 5.271 ± 0.22
9.13 K, Crystal 2 | 5.488 ± 0.25
9.54 K, Crystal 2 | 5.404 ± 0.22
9.95 K, Crystal 2 | 5.654 ± 0.25
10 K, Crystal 2 | 5.579 ± 0.22
10.3 K, Crystal 2 | 5.654 ± 0.23
11.03 K, Crystal 2 | 5.903 ± 0.24
11.57 K, Crystal 2 | 6.319 ± 0.26
12.47 K, Crystal 2 | 6.818 ± 0.27
12.55 K, Crystal 2 | 6.901 ± 0.28
13.98 K, Crystal 2 | 7.816 ± 0.32
15 K, Crystal 2 | 8.647 ± 0.33
15.39 K, Crystal 2 | 8.98 ± 0.083
16.79 K, Crystal 2 | 10.24 ± 0.12
18.22 K, Crystal 2 | 11.6 ± 0.13
19.65 K, Crystal 2 | 12.95 ± 0.14
20 K, Crystal 2 | 13.29 ± 0.15
20.79 K, Crystal 2 | 14.05 ± 0.16
21.93 K, Crystal 2 | 15.15 ± 0.17
23.17 K, Crystal 2 | 16.48 ± 0.17
24.41 K, Crystal 2 | 17.81 ± 0.19
25 K, Crystal 2 | 18.42 ± 0.2
26.16 K, Crystal 2 | 19.68 ± 0.21
27.91 K, Crystal 2 | 21.56 ± 0.22
29.7 K, Crystal 2 | 23.55 ± 0.25
30 K, Crystal 2 | 23.85 ± 0.25
30.98 K, Crystal 2 | 25 ± 0.26
31.52 K, Crystal 2 | 25.55 ± 0.27
32.86 K, Crystal 2 | 26.96 ± 0.27
34.2 K, Crystal 2 | 28.45 ± 0.29
35 K, Crystal 2 | 29.29 ± 0.3
36 K, Crystal 2 | 30.31 ± 0.32
37.79 K, Crystal 2 | 32.15 ± 0.33
39.59 K, Crystal 2 | 33.82 ± 0.35
40 K, Crystal 2 | 34.22 ± 0.35
41.48 K, Crystal 2 | 35.49 ± 0.22
43.18 K, Crystal 2 | 36.82 ± 0.23
45 K, Crystal 2 | 38.16 ± 0.24
45.05 K, Crystal 2 | 38.3 ± 0.24
46.84 K, Crystal 2 | 39.62 ± 0.25
48.73 K, Crystal 2 | 41.07 ± 0.26
50 K, Crystal 2 | 42.05 ± 0.27
50.55 K, Crystal 2 | 42.5 ± 0.27
52.38 K, Crystal 2 | 44 ± 0.28
54.21 K, Crystal 2 | 45.4 ± 0.29
56.04 K, Crystal 2 | 46.79 ± 0.3
57.87 K, Crystal 2 | 48.08 ± 0.31
59.7 K, Crystal 2 | 49.36 ± 0.32
60 K, Crystal 2 | 49.65 ± 0.32
61.53 K, Crystal 2 | 50.69 ± 0.32
63.37 K, Crystal 2 | 52 ± 0.33
65.2 K, Crystal 2 | 53.24 ± 0.33
67.03 K, Crystal 2 | 54.47 ± 0.34
68.87 K, Crystal 2 | 55.66 ± 0.35
70 K, Crystal 2 | 56.41 ± 0.36
70.7 K, Crystal 2 | 56.85 ± 0.36
72.42 K, Crystal 2 | 57.92 ± 0.37
73.98 K, Crystal 2 | 58.82 ± 0.37
75.54 K, Crystal 2 | 59.72 ± 0.37
76.62 K, Crystal 2 | 60.35 ± 0.38
77.7 K, Crystal 2 | 60.98 ± 0.38
78.93 K, Crystal 2 | 61.69 ± 0.39
79.65 K, Crystal 2 | 62.09 ± 0.39
80 K, Crystal 2 | 62.23 ± 0.39
80.15 K, Crystal 2 | 62.42 ± 0.39
81.49 K, Crystal 2 | 63.07 ± 0.4
82.19 K, Crystal 2 | 63.43 ± 0.4
82.8 K, Crystal 2 | 63.72 ± 0.4
84.9 K, Crystal 2 | 64.7 ± 0.41
87.44 K, Crystal 2 | 66.08 ± 0.42
89.1 K, Crystal 2 | 66.98 ± 0.42
90 K, Crystal 2 | 67.48 ± 0.45
92.52 K, Crystal 2 | 68.77 ± 0.46
95.06 K, Crystal 2 | 70.08 ± 0.47
97.6 K, Crystal 2 | 71.4 ± 0.47
99.96 K, Crystal 2 | 72.65 ± 0.47
100 K, Crystal 2 | 72.69 ± 0.47
102.68 K, Crystal 2 | 74.12 ± 0.48
105.79 K, Crystal 2 | 75.84 ± 0.5
108.49 K, Crystal 2 | 77.53 ± 0.51
110 K, Crystal 2 | 78.18 ± 0.51
110.3 K, Crystal 2 | 78.39 ± 0.51
111.89 K, Crystal 2 | 79.04 ± 0.52
112.89 K, Crystal 2 | 79.62 ± 0.52
113.69 K, Crystal 2 | 80.09 ± 0.52
115.29 K, Crystal 2 | 81.13 ± 0.52
116.83 K, Crystal 2 | 82.04 ± 0.53
118.24 K, Crystal 2 | 82.7 ± 0.53
119.21 K, Crystal 2 | 83.23 ± 0.5
120 K, Crystal 2 | 83.73 ± 0.58
120.39 K, Crystal 2 | 84.89 ± 0.58
123.17 K, Crystal 2 | 91.87 ± 0.58
124.56 K, Crystal 2 | 100.77 ± 0.67
125.56 K, Crystal 2 | 106.26 ± 0.67
126.99 K, Crystal 2 | 117.73 ± 0.75
127 K, Crystal 1 | 86.55 ± 0.58
127 K, Crystal 2 | 86.55 ± 0.58
128.36 K, Crystal 1 | 113.16 ± 0.75
128.73 K, Crystal 1 | 107.76 ± 0.75
130 K, Crystal 1 | 87.8 ± 0.58
130.58 K, Crystal 1 | 93.29 ± 0.58
131.88 K, Crystal 1 | 89.3 ± 0.58
132.69 K, Crystal 1 | 88.3 ± 0.58
133.47 K, Crystal 1 | 88.38 ± 0.58
134.22 K, Crystal 1 | 88.8 ± 0.58
135.31 K, Crystal 1 | 89.3 ± 0.58
136.46 K, Crystal 1 | 89.88 ± 0.58
137.83 K, Crystal 1 | 90.46 ± 0.58
138.61 K, Crystal 1 | 90.79 ± 0.58
139.44 K, Crystal 1 | 91.13 ± 0.58
140 K, Crystal 1 | 91.54 ± 0.58
140.05 K, Crystal 1 | 91.46 ± 0.58
141.84 K, Crystal 1 | 92.21 ± 0.58
143.65 K, Crystal 1 | 92.87 ± 0.58
146.58 K, Crystal 1 | 93.95 ± 0.58
149.52 K, Crystal 1 | 95.03 ± 0.58
150 K, Crystal 1 | 95.37 ± 0.58
152.45 K, Crystal 1 | 96.2 ± 0.58
155.39 K, Crystal 1 | 97.36 ± 0.58
158.13 K, Crystal 1 | 98.36 ± 0.67
160 K, Crystal 1 | 99.03 ± 0.67
160.88 K, Crystal 1 | 99.36 ± 0.67
163.62 K, Crystal 1 | 100.44 ± 0.67
166.37 K, Crystal 1 | 101.44 ± 0.67
168.91 K, Crystal 1 | 102.35 ± 0.67
170 K, Crystal 1 | 102.68 ± 0.67
171.45 K, Crystal 1 | 103.27 ± 0.67
174.38 K, Crystal 1 | 104.26 ± 0.67
177.32 K, Crystal 1 | 105.26 ± 0.67
180 K, Crystal 1 | 106.18 ± 0.67
180.25 K, Crystal 1 | 106.26 ± 0.67
183.19 K, Crystal 1 | 107.26 ± 0.67
186.12 K, Crystal 1 | 108.17 ± 0.67
189.06 K, Crystal 1 | 109.17 ± 0.67
190 K, Crystal 1 | 109.58 ± 0.67
191.79 K, Crystal 1 | 110.08 ± 0.67
194.53 K, Crystal 1 | 111 ± 0.67
197.27 K, Crystal 1 | 111.91 ± 0.75
199.58 K, Crystal 1 | 112.58 ± 0.75
200 K, Crystal 1 | 112.74 ± 0.75
201.38 K, Crystal 1 | 113.08 ± 0.75
203.92 K, Crystal 1 | 113.83 ± 0.75
206.38 K, Crystal 1 | 114.57 ± 0.75
209.38 K, Crystal 1 | 115.65 ± 0.75
210 K, Crystal 1 | 115.82 ± 0.75
212.32 K, Crystal 1 | 116.57 ± 0.75
215.39 K, Crystal 1 | 117.48 ± 0.75
218.18 K, Crystal 1 | 118.31 ± 0.75
219.88 K, Crystal 1 | 118.73 ± 0.75
220 K, Crystal 1 | 118.81 ± 0.75
221.58 K, Crystal 1 | 119.23 ± 0.75
224.09 K, Crystal 1 | 119.98 ± 0.75
226.59 K, Crystal 1 | 120.73 ± 0.75
229.5 K, Crystal 1 | 121.56 ± 0.75
230 K, Crystal 1 | 121.56 ± 0.75
232.41 K, Crystal 1 | 122.39 ± 0.75
235.32 K, Crystal 1 | 123.3 ± 0.75
238.23 K, Crystal 1 | 124.22 ± 0.75
240 K, Crystal 1 | 124.3 ± 0.75
